In patent publication US4605744A, “Imidazole derivatives” (Hoffmann-La Roche Inc., priority 1985, dated 1986):
Counter-ions that a name gives are not always drawn. Like-named read-outs stand apart in the source and are kept apart here.

How the values were obtained:
Assay in all cases: In vitro antibacterial activity (MIC)
Assay type in all cases: cell-based
E. coli 5152 = settings: Escherichia coli, 5152, E. coli 5152; read-out: MIC
Method in brief: (§1)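 Read-out: visible growth, checked with a viewer after overnight incubation at 37° C. Bacteria, from a 10^-2 dilution of an overnight culture, were exposed to drug at 128 to 0.008 μg/ml in Mueller-Hinton broth.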

K. pneumoniae HE7 = settings: Klebsiella pneumoniae; K. pneumoniae HE7; read-out: MIC
Method in brief: as §1

K. pneumoniae 4964 = settings: Klebsiella pneumoniae, 4964, K. pneumoniae 4964; read-out: MIC
Method in brief: as §1

S. marcescens S1 = settings: Serratia marcescens, S1, S. marcescens S1; read-out: MIC
Method in brief: as §1

P. aeruginosa 5712 = settings: Pseudomonas aeruginosa; P. aeruginosa 5712; read-out: MIC
Method in brief: as §1

P. mirabilis 2 = settings: Proteus mirabilis, 2, P. mirabilis 2; read-out: MIC
Method in brief: as §1

S. aureus Smith = settings: Staphylococcus aureus, S. aureus Smith; read-out: MIC
Method in brief: as §1

K. pneumoniae 503-994 = settings: Klebsiella pneumoniae, 503994, K. pneumoniae 503-994; read-out: MIC
Method in brief: as §1

E. coli 387-1 = settings: Escherichia coli, 3871, E. coli 387-1; read-out: MIC
Method in brief: as §1

S. marcescens S714 = settings: Serratia marcescens, S714, S. marcescens S714; read-out: MIC
Method in brief: as §1

P. mirabilis 620A = settings: Proteus mirabilis, 620A, P. mirabilis 620A; read-out: MIC
Method in brief: as §1

E. cloacae 9295 = settings: Enterobacter cloacae, 9295, E. cloacae 9295; read-out: MIC
Method in brief: as §1

S. marcescens 5805 = settings: Serratia marcescens, 5805, S. marcescens 5805; read-out: MIC
Method in brief: as §1

P. aeruginosa B = settings: Pseudomonas aeruginosa, read-out: MIC
Method in brief: as §1

P. aeruginosa 503-820 = settings: Pseudomonas aeruginosa, 503820; P. aeruginosa 503-820; read-out: MIC
Method in brief: as §1

S. marcescens SM = settings: Serratia marcescens, read-out: MIC
Method in brief: as §1

E. cloacae 214 = settings: Enterobacter cloacae, 214, E. cloacae 214; read-out: MIC
Method in brief: as §1

P. vulgaris 100 = settings: Proteus vulgaris; P. vulgaris 100; read-out: MIC
Method in brief: as §1

K. pneumoniae 8357 = settings: Klebsiella pneumoniae, 8357, K. pneumoniae 8357; read-out: MIC
Method in brief: as §1

S. schottmuelleri = test system: S. schottmuelleri
Method in brief: as §1

P. aeruginosa POW 151 = settings: Pseudomonas aeruginosa, POW151
Method in brief: as §1

S. marcescens S4 = settings: Serratia marcescens, S4, S. marcescens S4; read-out: MIC
Method in brief: as §1

S. pyogenes 503-782 = settings: Streptococcus pyogenes, 503782; S. pyogenes 503-782; read-out: MIC
Method in brief: as §1

S. marcescens S147 = settings: Serratia marcescens; S. marcescens S147; read-out: MIC
Method in brief: as §1

E. coli 4 = settings: Escherichia coli, 4, E. coli 4; read-out: MIC
Method in brief: as §1

E. cloacae 9570A = settings: Enterobacter cloacae, read-out: MIC
Method in brief: as §1

E. aerogenes 8 = settings: Klebsiella aerogenes; E. aerogenes 8; read-out: MIC
Method in brief: as §1

S. aureus 1059B = settings: Staphylococcus aureus, read-out: MIC
Method in brief: as §1

E. aerogenes 83 = settings: Klebsiella aerogenes, 83, E. aerogenes 83; read-out: MIC
Method in brief: as §1

E. aerogenes 503-478 = settings: Klebsiella aerogenes, 503478, E. aerogenes 503-478; read-out: MIC
Method in brief: as §1

S. marcescens S2 = settings: Serratia marcescens; S. marcescens S2; read-out: MIC
Method in brief: as §1

E. coli 503-455 = settings: Escherichia coli, 503455, E. coli 503-455; read-out: MIC
Method in brief: as §1

P. aeruginosa 8780 = settings: Pseudomonas aeruginosa; P. aeruginosa 8780; read-out: MIC
Method in brief: as §1

K. pneumoniae 35 = settings: Klebsiella pneumoniae; K. pneumoniae 35; read-out: MIC
Method in brief: as §1

P. aeruginosa 6148B = settings: Pseudomonas aeruginosa, read-out: MIC
Method in brief: as §1

S. marcescens S5 = settings: Serratia marcescens, S5, S. marcescens S5; read-out: MIC
Method in brief: as §1

S. aureus Giorgio = settings: Staphylococcus aureus, S. aureus Giorgio; read-out: MIC
Method in brief: as §1

E. coli 48 = settings: Escherichia coli, 48, E. coli 48; read-out: MIC
Method in brief: as §1

E. cloacae 6951 = settings: Enterobacter cloacae, 6951, E. cloacae 6951; read-out: MIC
Method in brief: as §1

P. aeruginosa Stone 130 = settings: Pseudomonas aeruginosa, STONE130, read-out: MIC
Method in brief: as §1

C. diversus CDC 1663-72 = settings: Citrobacter koseri, CDC166372; C. diversus CDC 1663-72; read-out: MIC
Method in brief: as §1

P. aeruginosa 5700 = settings: Pseudomonas aeruginosa, 5700, P. aeruginosa 5700; read-out: MIC
Method in brief: as §1

K. pneumoniae 503-964 = settings: Klebsiella pneumoniae, 503964; K. pneumoniae 503-964; read-out: MIC
Method in brief: as §1

S. faecalis C1 = settings: Enterococcus faecalis; S. faecalis C1; read-out: MIC
Method in brief: as §1

P. vulgaris 101 = settings: Proteus vulgaris, 101, P. vulgaris 101; read-out: MIC
Method in brief: as §1

For `Cc1nc(C)n(CCCC2CCN(C=N[C@@H]3C(=O)N4[C@@H]3SC(C)(C)[C@@H]4C(=O)O)CC2)c1C` [E, [2S-(2alpha,5alpha,6beta)]-6[[4-[3-[(2,4,5-trimethyl-1H-imidazol-1-yl)propyl]-1-piperidinyl]methylene]amino]-3,3-dimethyl-7-oxo-4-thia-1-azabicyclo[3.2.0]heptane-2-carboxylic acid hydrate hydrochloride], the MIC (E. coli 5152) was 8 µg/mL, the MIC (K. pneumoniae HE7) was > 128 µg/mL and the MIC (K. pneumoniae 4964) was 1 µg/mL. For the same compound, the MIC (S. marcescens S1) was 1 µg/mL, the MIC (P. aeruginosa 5712) was > 128 µg/mL and the MIC (P. mirabilis 2) was 0.5 µg/mL. For the same compound, the MIC (S. aureus Smith) was 8 µg/mL, the MIC (K. pneumoniae 503-994) was 0.062 µg/mL and the MIC (E. coli 387-1) was 4 µg/mL. The MIC (S. marcescens S714) was 1 µg/mL, the MIC (P. mirabilis 620A) was 128 µg/mL and the MIC (E. cloacae 9295) was 0.25 µg/mL. The MIC (S. marcescens 5805) was 0.5 µg/mL, the MIC (P. aeruginosa B) was > 128 µg/mL and the MIC (P. aeruginosa 503-820) was > 128 µg/mL. It also gave an MIC (S. marcescens SM) of 0.125 µg/mL, an MIC (E. cloacae 214) of 0.5 µg/mL and an MIC (P. vulgaris 100) of 8 µg/mL. The MIC (K. pneumoniae 8357) was 0.062 µg/mL, the MIC (S. schottmuelleri; read-out: MIC) was 0.062 µg/mL and the MIC (P. aeruginosa POW 151) was > 128 µg/mL. For the same compound, the MIC (S. marcescens S4) was 0.5 µg/mL, the MIC (S. pyogenes 503-782) was 128 µg/mL and the MIC (S. marcescens S147) was 0.5 µg/mL. It also gave an MIC (E. coli 4) of 4 µg/mL, an MIC (E. cloacae 9570A) of 0.125 µg/mL and an MIC (E. aerogenes 8) of 32 µg/mL. The MIC (S. aureus 1059B) was 64 µg/mL, the MIC (E. aerogenes 83) was 0.5 µg/mL and the MIC (E. aerogenes 503-478) was 1 µg/mL. The MIC (S. marcescens S2) was 0.5 µg/mL, the MIC (E. coli 503-455) was 2 µg/mL and the MIC (P. aeruginosa 8780) was > 128 µg/mL. For the same compound, the MIC (K. pneumoniae 35) was 0.125 µg/mL, the MIC (P. aeruginosa 6148B) was > 128 µg/mL and the MIC (S. marcescens S5) was 1 µg/mL. The MIC (S. aureus Giorgio) was 8 µg/mL, the MIC (E. coli 48) was 0.062 µg/mL and the MIC (E. cloacae 6951) was 8 µg/mL. For the same compound, the MIC (P. aeruginosa Stone 130) was > 128 µg/mL, the MIC (C. diversus CDC 1663-72) was 0.062 µg/mL and the MIC (P. aeruginosa 5700) was > 128 µg/mL. The MIC (K. pneumoniae 503-964) was 0.062 µg/mL, the MIC (S. faecalis C1) was 128 µg/mL and the MIC (P. vulgaris 101) was 4 µg/mL.
For `CC1(C)S[C@@H]2[C@H](N=CN3CCC(Cn4ccnc4CN)CC3)C(=O)N2[C@H]1C(=O)O` [J, [2S-(2alpha,5alpha,6beta)]-6-[[[4-[[2-(aminomethyl)-1H-imidazol-1-yl]methyl]-1-piperidinyl]methylene]amino]-3,3-dimethyl-7-oxo-4-thia-1-azabicyclo[3.2.0]heptane-2-carboxylic acid hydrochloride], the MIC (E. coli 5152) was 16 µg/mL, the MIC (K. pneumoniae HE7) was > 128 µg/mL and the MIC (K. pneumoniae 4964) was 0.5 µg/mL. The MIC (S. marcescens S1) was 0.5 µg/mL, the MIC (P. aeruginosa 5712) was > 128 µg/mL and the MIC (P. mirabilis 2) was 8 µg/mL. For the same compound, the MIC (S. aureus Smith) was 8 µg/mL, the MIC (K. pneumoniae 503-994) was 8 µg/mL and the MIC (E. coli 387-1) was 0.125 µg/mL. The MIC (S. marcescens S714) was 0.5 µg/mL, the MIC (P. mirabilis 620A) was > 128 µg/mL and the MIC (E. cloacae 9295) was 4 µg/mL. The MIC (S. marcescens 5805) was 1 µg/mL, the MIC (P. aeruginosa B) was 0.25 µg/mL and the MIC (P. aeruginosa 503-820) was > 128 µg/mL. The MIC (S. marcescens SM) was 0.5 µg/mL, the MIC (E. cloacae 214) was 1 µg/mL and the MIC (P. vulgaris 100) was 8 µg/mL. For the same compound, the MIC (K. pneumoniae 8357) was 4 µg/mL, the MIC (S. schottmuelleri) was 0.062 µg/mL and the MIC (P. aeruginosa POW 151) was > 128 µg/mL. It also gave an MIC (S. marcescens S4) of 1 µg/mL, an MIC (S. pyogenes 503-782) of 128 µg/mL and an MIC (S. marcescens S147) of 0.25 µg/mL. For the same compound, the MIC (E. coli 4) was 0.062 µg/mL, the MIC (E. cloacae 9570A) was 0.5 µg/mL and the MIC (E. aerogenes 8) was 0.5 µg/mL. For the same compound, the MIC (S. aureus 1059B) was > 128 µg/mL, the MIC (E. aerogenes 83) was 1 µg/mL and the MIC (E. aerogenes 503-478) was 8 µg/mL. The MIC (S. marcescens S2) was 0.25 µg/mL, the MIC (E. coli 503-455) was 1 µg/mL and the MIC (P. aeruginosa 8780) was > 128 µg/mL. For the same compound, the MIC (K. pneumoniae 35) was 0.5 µg/mL, the MIC (P. aeruginosa 6148B) was 128 µg/mL and the MIC (S. marcescens S5) was 0.5 µg/mL. It also gave an MIC (S. aureus Giorgio) of 8 µg/mL, an MIC (E. coli 48) of 8 µg/mL and an MIC (E. cloacae 6951) of 16 µg/mL. The MIC (P. aeruginosa Stone 130) was > 128 µg/mL, the MIC (C. diversus CDC 1663-72) was 0.031 µg/mL and the MIC (P. aeruginosa 5700) was 0.5 µg/mL. It also gave an MIC (K. pneumoniae 503-964) of 0.25 µg/mL, an MIC (S. faecalis C1) of 128 µg/mL and an MIC (P. vulgaris 101) of 8 µg/mL.
